Measurements reported in US20240174690A1, “ANNULATED 2-AMINO-3-CYANO THIOPHENES AND DERIVATIVES FOR THE TREATMENT OF CANCER” (BOEHRINGER INGELHEIM INTERNATIONAL GMBH, priority 2021, published 2024).

How the values were obtained:
[1] = Plasma protein binding assay (PPB), equilibrium dialysis, 10% FCS in PBS; type: in vitro ADME; details: bovine, read-out: PPB 10% FCS (% fu)
Outline: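 Equilibrium dialysis (5-10 kg/mol cut-off membrane) of 1-10 μmol/L test compound in 10% FCS/PBS against PBS with or without dextran, 3-5 h at 37° C. Compound in each chamber quantified by LC-MS after protein precipitation; fu calculated from Cserum and Cbuffer.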

MKN1 cells = assay: MKN1 CTG proliferation assay (120 h) (gastric cancer, wt amplified); type: cell-based; details: Homo sapiens, MKN-1, assay 3, CTG 120 h, read-out: MKN1 (assay 3) IC50
Procedure: MKN1 CTG Proliferation Assay (120 h) (Gastric Cancer, Wt Amplified)
MKN1 cells (JCRB0252) are dispensed into white 384-well plates, flat and white bottom (Corning Costar, PNr.: 3570) at a density of 400 cells per well in 50 μL RPMI 1640 (PAN-Biotech, PNr.: P04-18047)+10% FCS (HyClone, PNr.: SH30084.03) (assay 1) or into white 384-well plates, flat and white bottom (Perkin Elmer, 6007680) at a density of 500 cells per well in 40 μl RPMI (Gibco, PNr.: 21875034)+10% FCS (HyClone, PNr.: SH30084.03) (assay 2) or into black 384-well plates, flat and clear bottom (Greiner, PNr. 781091) at a density of 200 cells per well in 60 μl RPMI-1640 (Gibco #A10491)+10% FCS (HyClone, PNr.: SH30084.03)+PenStrep (Gibco, PNr.15140-122) (assay 3). […] Compounds (10 mM stock in DMSO) are added at logarithmic dose series using the HP Digital Dispenser D300 (Tecan) (assay 1+2) or the ECHO acoustic liquid handler system (Beckman Coulter) (assay 3), including DMSO controls and normalizing for added DMSO. Plates are incubated for 120 h, and cell viability is measured using CellTiter-Glo luminescent cell viability reagent (Promega product code G7570). Viability (stated as percent of control) is defined as relative luminescence units RLU of each well divided by the RLU of cells in DMSO controls. IC50 values are determined from viability measurements by non-linear regression using a four-parameter model.

LOVO cells = assay: LOVO CTG proliferation assay (120 h) (CRC, G13D); type: cell-based; details: Homo sapiens, CTG 120 h
Outline: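 LOVO cells, 1000 per well in DMEM + 10% FCS, were plated overnight and then dosed with compound from DMSO stock. After 120 h at 37 °C, viability was read by CellTiter-Glo luminescence as a percentage of DMSO controls. IC50 was derived by four-parameter non-linear regression.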

Q: For `C[C@H](Oc1cc(-n2ccnc2)nc(-c2noc3c2CCC[C@@]32CCCc3sc(N)c(C#N)c32)n1)[C@@H]1C[C@@H](F)CN1C` [II-120], which fraction unbound [1] is on record?
A: 0.24

Q: And the IC50 (MKN1 cells)?
A: 234 nM

Q: And the IC50 (LOVO cells)?
A: 401 nM
